Some results are limits rather than exact numbers.

The melting point is the temperature, or range, at which the solid turns liquid. `CC1CCN(Cc2ccc(C=CC(=O)Nc3ccc(-c4ccc(Cl)cc4)cc3)cc2)CC1` showed a melting point of 207 to 208 °C. Next, `COc1ccc(OCC(=O)O)c(C(Nc2ccc(C(=N)N)cc2)C(=O)O)c1` (racemic): 213 °C; `Cc1ccc2c(c1)C=Cc1cc(C)ccc1C2c1cn(-c2cc(NCC(=O)Nc3nc(CC(=O)O)cs3)nc(N(C)C)n2)c(=O)[nH]c1=O`: 220 °C. Next, `COc1ccc(C2C(Oc3ccccc3)C(=O)N2c2ccc(C(=O)O)cc2)cc1` (centres undefined): 268 °C; `CC(C)c1nn(-c2ncc(C(F)(F)F)cc2Cl)cc1CCCO`: 66 to 67 °C; `CCCCn1c(C)c(C2(c3c(C)n(CCCC)c4ccccc34)NNC(=O)c3ccccc32)c2ccccc21`: 206 °C. Take `Clc1cc(I)cnc1Cl`: the melting point was in the range of 55 to 57 °C. Next, `COc1cc(OC)cc(C2CCCCC2=CC(=O)O)c1` (centres undefined): 154 to 156 °C.

Regarding `O=C(Nc1nc(-c2cc(Cl)nc(Cl)c2)cs1)NS(=O)(=O)c1ccccc1C(F)(F)F`, the melting point is > 280 °C. Next, `O=C(O)c1ccccc1Nc1ccnn1Cc1ccccc1`: 190 °C; `CCCCn1c(=O)n(CCC)c(=O)c2c3n(nc21)CCCN3C`: 94 to 98 °C; `C1=C(c2ccccc2)CCN(Cc2c[nH]c3ncccc23)C1`: 177 to 179 °C. Next, `Cc1cc(C(=O)O)cc(C)c1C(=O)O`: > 300 °C. The compound `CN(C(=O)C(C)(C)C)C1(c2ccccc2)CCNCC1` displayed a melting point of 125 °C. Then `CCCCNC(=O)NS(=O)(=O)c1ccc(CCNC(=O)N2CC(C)=C(C)C2=O)cc1`, with 198 to 200 °C; and `CC(C)(C)c1nc(C=NO)ncc1O`, with 205 to 220 °C. `CCCN1CCC23c4cccc(O)c4OC2C2CCC3(C1)C(CSC)C2` (centres undefined) came in with a melting point of 152 to 153 °C.

As to `O=C1CC[C@H](c2ccc(NC(=O)OCc3ccccc3)cc2)C1`, the melting point was 96.3 to 98.5 °C. Next, `NC(=O)c1cc(C(=O)c2ccccc2)ccc1[N+](=O)[O-]`: 244 °C; `Oc1c(CN2CCSCC2)ncc2c1COC2c1ccccc1` (centres undefined): 185 °C; `COC(=O)CC[C@H](NC(=O)c1ccc(NCCc2c(N(C(C)=O)C(C)=O)nc(NC(C)=O)[nH]c2=O)cc1)C(=O)OC`: 168 to 178 °C. `COCC(=O)OC1(C(=O)COC(=O)C(C)C)CCC2C3CC(C)C4=CC(=O)C=CC4(C)C3C(O)CC21C` (centres undefined) yielded a melting point of 148 to 150 °C.

`CCCOc1nc2ccc(Cl)cc2c(=O)n1CCC` yielded a melting point of 64 to 66 °C.

Consider `Clc1ccc(C2CCN(CCCOc3ccc4c(c3)CNCCC4)CC2)cc1`, for which the melting point fell in the range of 97 to 99 °C.

In turn, `CC1(C)CC(=O)C(c2ccc(N)cc2Cl)C(=O)C1` came in with a melting point of 218 to 219 °C.

Turning to `CCOc1ccc(C(C)=O)cc1S(N)(=O)=O`, the melting point was in the range of 148 to 151 °C. Then `CN1C(=O)C2C3C=CC(CC3)C2(c2ccc(F)c(F)c2)C1=O` (centres undefined), with 125 to 127 °C; and `CC(C)(C)C(=O)Nc1ccc(Br)cn1`, with 57 to 59 °C; and `CC(=O)SC[C@H](NC(=O)C(C)C)C(=O)NCCSC(=O)c1ccccc1`, with 174 to 176 °C.

The compound `N#Cc1cccnc1CC1C(=O)C2(COc3cc4c(cc32)OCCO4)c2ccccc21` (centres undefined) gave a melting point of 230 to 233 °C. Then `CCOC(=O)C1=C(C)NC(C)=C(C(=O)OCCOC)C1c1cccc([N+](=O)[O-])c1` (centres undefined), with 108 °C; and `CCC#CCCOc1cc(/C=C/C(=O)Nc2ccccc2C(=O)O)ccc1OC`, with 163 to 165 °C. Next, `N#Cc1cccc(-c2ccc3c(Cl)cnc(NC(=N)N)c3c2)c1`: > 300 °C. `Nc1nc2ccc(S(=O)(=O)n3c(CCC(=O)O)cc4cc(Cl)ccc43)cc2s1` returned a melting point of 250 to 255 °C. Turning to `CC(C)(C)OC(=O)CNC(=S)Nc1cccc(C#N)c1`, the melting point is 131 to 132 °C. Next, `Cc1noc(NS(=O)(=O)c2ccc(C(C)(C)C)cc2)c1C`: 151 to 154 °C; `CON(c1ccc(C#N)cc1Cl)S(=O)(=O)c1ccc(C)cc1`: 145 to 147 °C; `CCNc1c(S(=O)C(F)(F)F)c(C)nn1-c1c(Cl)cc(C(F)(F)F)cc1Cl` (centres undefined): 76 °C. As to `CCCCOC(=O)CNC(=O)c1nc2ccc(OC)cc2cc1OCc1ccccc1`, the melting point was 90 to 92 °C.

For `CCN1CCN(c2cc(-c3ccccc3)c3ccccc3n2)CC1`, the melting point lay within 87 to 88 °C. As for `CCO[C@@H](Cc1ccc(OCCc2nc(-c3ccc(-c4ccccc4)cc3)oc2C)c2ccccc12)C(=O)O`, the melting point lay within 140 to 145 °C.

`C#CCn1c(-c2ccccc2)nc(C(F)(F)F)c(CC)c1=O` yielded a melting point of 111 to 114 °C.

Consider `NC(=O)c1cc2cc(N3CCN(Cc4ccccc4)CC3)ccc2o1`, for which the melting point was 206 to 208 °C. With `ClC(c1ccccc1)c1cccnn1` (centres undefined), the melting point was in the range of 110 to 112 °C. For `CNC(=O)n1sc(N(C)C)nc1=O`, the melting point stood at 164 °C.

`CC(O)C#CC1CCC2C3CCC4CC(O[Si](c5ccccc5)(c5ccccc5)C(C)(C)C)CCC4(C)C3CCC12C` (centres undefined) had a melting point of 68 to 70 °C. Next, `CC1NC(=O)NN=C1c1ccc(Cl)c(N)c1` (centres undefined): 226 to 228 °C; `C1=C(c2ccc3[nH]ccc3c2)CCN(Cc2c[nH]c3ncccc23)C1`: 187 to 189 °C; `N#CC1=C(Nc2ccc(F)cc2F)CCC1`: 116 to 119 °C. Next, `CCn1c(C)c(C)c(=O)c(C(=O)O)c1-c1ccc(Cl)cc1`: 240 to 242 °C; `Cc1cc(C(=O)c2cccs2)cc(C)c1OCC(=O)O`: 115 °C. With `CC(C)c1cccc(C(C)C)c1NC(=O)CN1C(=O)N(c2ccc(C#N)cc2)C2(CCCCC2)C1=O`, the melting point fell in the range of 280 to 282 °C.

The compound `COc1ccc(-c2nc3cnccc3[nH]2)c(OCC#N)c1` registered a melting point of 198 °C.

On to `COCn1nc(Nc2cnccn2)c2cc(-c3ncccc3Cl)cc(OCCc3ccccn3)c21`, for which the melting point fell in the range of 120 to 122 °C. As for `CCCCCCCCCCCCCCOc1ccc(C(C)=O)o1`, the melting point lay in the range of 70 to 72 °C. Then `CCCCCCN=C=O`, with 68 to 72 °C; and `NCC1Cc2cc(-c3cccc(F)c3)cc(F)c2O1` (centres undefined), with > 250 °C. Then `CCC(N)(CC)Cc1c[nH]c2ccccc12`, with 92 to 94 °C; and `Fc1cccc2c(CCc3ccsc3)ccnc12`, with 96 to 97 °C. Then `C=C(CCl)C(C(=O)OC(c1ccccc1)c1ccccc1)N1C(=O)C2N=C(Cc3ccccc3)OC21` (centres undefined), with 82 to 83 °C; and `COc1ccc(C(=O)c2cc([N+](=O)[O-])ccc2Cl)cc1OC`, with 138 °C; and `O=C(Nc1ccc(N2CCN(C(=O)C(O)c3ccc(O)cc3Cl)CC2)nc1)Nc1ccccc1F` (centres undefined), with 133 to 135 °C. Take `Clc1cc(Cl)c2nc(SCc3ccccc3)nn2c1`: the melting point lay in the range of 115 to 116 °C. Take `C=CC[C@H](NS(=O)(=O)c1ccc(OC)cc1)C(=O)OC(C)(C)C`: the melting point lay in the range of 58 to 59 °C. Then `COc1cc2cc(C(=O)O)c(C(=O)O)nc2cc1OC`, with 264 to 266 °C. Then `C[C@@H](NC(=O)c1noc(-c2ccc(Cl)cc2)n1)[C@](O)(Cn1cncn1)c1ccc(F)cc1F`, with 79 to 83 °C. Consider `CCCN1CCCN(c2c(N3CCCN(CCC)CC3)c(=O)c2=O)CC1`, for which the melting point fell in the range of 90 to 92 °C. Next, `CN(C)c1ccc(C=O)c([N+](=O)[O-])c1`: 115 to 116 °C; `Cc1ccc(S(=O)(=O)N(c2ccc(C#N)cc2Cl)C(C)C)cc1`: 118 to 119 °C. Next, `CCNc1nc(Cl)c(Cl)c(N2CCN(CC[C@H]3CC[C@H](NC(=O)OC(C)(C)C)CC3)CC2)n1`: 197 to 199 °C; `COCC(=O)N(CC(C)=O)c1c(C)cccc1C`: 56 to 57 °C.

Compound `O=C(NC(=O)c1c(F)cccc1F)Nc1ccc2c(c1)C(F)(F)OC(F)(F)O2` gave a melting point of 231 °C. As for `NC(=O)c1c(O)cccc1OCCBr`, the melting point was 120 to 121 °C. Then `Clc1cccc(Cl)c1C1CCN(Cc2[nH]c3ccccc3c2-c2ccccc2)CC1`, with 162 to 164 °C; and `Nc1cccc(NC(=O)C(=O)N2CCC(Cc3ccc(F)cc3)CC2)c1`, with 117 to 120 °C; and `CCCCCCCCCCCCCCCCSCC(CNS(=O)(=O)CCCCl)NC(=O)NC` (centres undefined), with 79 to 80 °C. Then `CC(C)(C)OC(=O)N1CCc2onc(O)c2C1`, with 151 to 152 °C; and `Cc1ccc2c(NCc3ccc(NC(=O)C4CCN(Cc5ccc(C(F)(F)F)cc5)CC4)cc3)nc(N(C)C)nc2c1`, with 126 to 128 °C; and `O=C(O)CC(=O)Nc1c(-c2ccccc2)c(=O)[nH]c2cc(Cl)ccc12`, with 260 °C.

In turn, `CSCC[C@H](NC(=O)[C@H](CC(C)C)NC(=O)OCc1ccccc1)C(=O)CSC` came in with a melting point of 61 to 67 °C. `CC(C)c1ccc(-c2nccc(-c3ccc(C(=O)O)cc3)n2)cc1` returned a melting point of 262 to 264 °C.

On to `Cn1ncnc1COc1nc2c(cc1-c1ccoc1)nnn2-c1ccccc1F`, for which the melting point fell in the range of 145 to 146 °C. Next, `O=C1[C@H]2CCC[C@H]2Nc2ccccc2N1Cc1cccc([N+](=O)[O-])c1` (relative stereo): 169 to 171 °C; `Cc1cc(C)c(NS(=O)(=O)c2cc(S(=O)(=O)Nc3c(C)cc(C)cc3C)c3cc(O)ccc3c2)c(C)c1`: 148 to 150 °C; `COC(=O)CC/C(C)=C/Cc1c(O)c2c(c(C)c1OC)COC2=O`: 104 to 105 °C.

With `Cc1oc(-c2ccccc2)nc1COc1ccc2cc(CCCC3OC(=O)NC3=O)oc2c1` (centres undefined), the melting point fell in the range of 159 to 160 °C. Take `CC(=O)CSc1nc2ccccc2cc1-c1ccc(F)cc1`: the melting point is 95 to 96 °C. Next, `C[C@H]1C[C@@](O)(c2cnc(Cl)s2)CCO1`: 40 to 42 °C. Next, `CC(C)(C)OC(=O)NC12CC3CC(CC(O)(C3)C1)C2`: 131 to 132 °C.
